US8193235B2, “Compositions and methods for establishing and maintaining stem cells in an undifferentiated state” (University of Kansas, priority 2009, dated 2012)

What was measured:
E14 cells = test: Growth under serum free condition (N2B27 medium); assay type: cell-based, mouse
Method: Growth Under Serum Free Condition. E14 cells were maintained in serum-free N2B27 medium containing DMEM/F12 (Invitrogen), Neurobasal media (Invitrogen), B27 supplement (Invitrogen), N2 supplement (Invitrogen), BSA fraction V (Invitrogen), 2-mercaptoethanol (Sigma) and LIF/BMP4 (R&D Systems, Minneapolis, Minn.) with change of medium on alternate days and passed in every 2-4 days. For experiments with Gö6983, ˜5×10^4 E14 cells were plated on each well of a gelatin-coated 6-well plate having N2B27 medium without LIF/BMP4 and with or without 5 μM Gö6983 and cultured for 3-4 days before passing. Cells were analyzed for expression of different markers (by RT-PCR or immunofluorescence study). For experiments at clonal density, initially, E14 cells were cultured at high density in N2B27 medium with Gö6983 alone for 4 passages, then ˜200 cells were plated in each wells of a 96-well plate with Gö6983 in N2B27 and cultured for 7 more days. After 7 days, colonies were analyzed for Oct4 staining.

E14 ES cells = test: ES cell differentiation on collagen IV and with retinoic acid; assay type: cell-based, mouse
Source text: ES Cell Differentiation on Collagen-IV and With Retinoic Acid. To differentiate ES cells in monolayer culture on collagen IV, around 3×10^4 cells per well were transferred to collagen IV-coated 6-well plates (BD Biosciences, Franklin Lakes, N.J.) cultured for 5 days in ES differentiation medium containing DMEM (Invitrogen), 15% FBS (selected for endothelial differentiation, Stem Cell Technologies, Vancouver, BC), sodium pyruvate and L-glutamine with or without LIF and Gö6983, and were recovered by cell dissociation buffer (BD Biosciences, Franklin Lakes, N.J.). For culturing multiple passages with Gö6983 on collagen-IV, the recovered cells were again plated at a density of ˜3×10^4 cells per well and cultured again for 5 days. […] For RA-induced differentiation on monolayer culture, ES cells were treated with all-trans-retinoic acid (Sigma, St. Louis, Mo.) in ethanol at a concentration of 1 μM with or without LIF and Gö6983 for 6 days followed by study of expression of pluripotency markers (by immunofluorescence or western blot or RT-PCR analysis).

PKC ζ = target: T1, PKC ζ (Mus musculus, UniProt Q02956); test: Western blot analysis of p-PKC ζ in ES cells; assay type: cell-based
T1 construct: endogenous in cells; host or cells: mouse ES cells (E14)
T1 sequence (Q02956 whole entry): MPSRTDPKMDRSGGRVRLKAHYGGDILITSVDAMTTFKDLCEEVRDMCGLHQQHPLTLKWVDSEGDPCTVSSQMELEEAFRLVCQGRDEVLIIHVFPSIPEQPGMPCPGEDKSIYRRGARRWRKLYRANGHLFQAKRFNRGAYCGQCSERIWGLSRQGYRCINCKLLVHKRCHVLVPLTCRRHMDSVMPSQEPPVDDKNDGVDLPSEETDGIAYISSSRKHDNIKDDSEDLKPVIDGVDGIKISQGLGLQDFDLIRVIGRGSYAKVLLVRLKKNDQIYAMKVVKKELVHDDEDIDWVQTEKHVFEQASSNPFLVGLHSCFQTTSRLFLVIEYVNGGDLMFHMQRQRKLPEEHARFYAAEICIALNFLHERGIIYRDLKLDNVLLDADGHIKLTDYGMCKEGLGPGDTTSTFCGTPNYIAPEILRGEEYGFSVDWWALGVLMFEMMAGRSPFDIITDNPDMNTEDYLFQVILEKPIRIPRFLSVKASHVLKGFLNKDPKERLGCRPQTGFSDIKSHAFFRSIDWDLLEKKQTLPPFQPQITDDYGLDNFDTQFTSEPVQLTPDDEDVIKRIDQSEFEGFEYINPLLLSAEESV
Method: (§1) Western Blot Analysis. Whole cell lysates were prepared in SDS-gel loading buffer and resolved by 10% PAGE. The antibodies used for this study included β-actin Clone AC-15 from Sigma; p-STAT3 (Tyr705), p-p44/42 MAPK (tyr202/tyr204), p44/42 MAPK, GSK3β, Phospho Akt (Ser473), Akt, p-NFκβ p65 (Ser536), c-Myc, p-c-Myc (Thr58/Ser62), p-p90RSK (Thr359/Ser363), RSK1, Suz12 (D39F6), and Ezh2 (AC22) from Cell Signaling Technology; STAT3 (C-20), Oct-4 (C-10), Nanog (M-149), PKC α (C-20), PKC βI (C-16), PKC βII (C-18), PKC γ (C-19), PKC δ (C-20), PKC ζ (c-20), p-PKC ζ (Thr 410)-R, p-NFκβ p65 (ser311), and RelA (p65) from Santa Cruz Biotechnology; p-LGL1/LGL2 (S650/S654), SSEA4and H3K4Me3 from Abcam; LGL2 (M06), clone 4G2 from Abnova; β-Catenin from BD Transduction Laboratories, and H3K27Me3 and H3K9Me3 from Millipore.

β-catenin = test: Cytosolic β-catenin stabilization assay; assay type: cell-based, mouse; conditions: mESCs
Method: Cytosolic β-Catenin Stabilization Assay. ES cells were treated with Wnt3A-conditioned medium or Gö6983 or LIF for 10 hours, and lysed hypotonically on ice with 1× TE (pH 7.4) with protease inhibitors. Lysates were centrifuged at 100,000 g at 4° C. for 45 minutes to collect and analyze cytosolic fractions.

[1] = tested on: canonical Wnt reporter (TOPFLASH reporter); test: TOPFLASH luciferase reporter assay; assay type: cell-based, mouse; conditions: mESCs
Method: TOPFLASH Luciferase Reporter Assay. […] were transfected with 0.5 μg of SUPER8XTOPFlash and 20 ng of phRL Renilla luciferase vectors per well using LIPOFECTAMINE (Invitrogen). Transfected cells were cultured with or without LIF, or Wnt3a-conditioned medium, or with Gö6983, and luciferase activity was measured after 48 hours of transfection using Dual-Luciferase Reporter Assay System (Promega).

c-Myc = test: GSK-3β-mediated phosphorylation of c-Myc at T58; assay type: cell-based, mouse; conditions: Gö6983 alone
p90Rsk1 (Rsk1) = test: Phosphorylation of p90Rsk1; assay type: cell-based, mouse; conditions: Gö6983 alone
Method: as §1

Ezh2−/− ES cells = Ezh2−/− ES cells on collagen-IV without LIF; assay type: cell-based, mouse; conditions: absence of LIF
Method: Ezh2^−/− ES Cells. Ezh2^−/− cells, passage 6, were maintained on irradiated MEF feeders in standard ES medium (DMEM; Dulbecco's modified Eagle's medium) supplemented with 15% heat-inactivated fetal calf serum, 0.1 mM 2-mercaptoethanol, 2 mM L-glutamine, 0.1 mM non-essential amino acid, 1% of nucleoside mix (100× stock, Sigma), 1000 U/mi LIF and 50 U/ml Penicillin/Streptomycin. For experiments involving Gö6983, Ezh2^−/− cells were passed once without feeders and used for subsequent analysis. For experiments on collagen IV, ˜3×10^4 Ezh2^−/− cells were plated in each well of a six-well tissue culture plate in the presence or absence of LIF and Gö6983.

DCIS.com cells = test: Mamosphere formation of breast cancer cells; assay type: cell-based
Method: In addition to ES and iPS cells, it was determined whether blockade of PKC signaling facilitated the propagation of cancer stem cells. To that end, mamosphere formation of a breast cancer cell type known as DCIS.com was analyzed. Mamospheres are specialized structures formed by breast cancer cell types and are indicative of presence and propagation of breast cancer stem cells. […] Therefore, blockade of PKC signaling can be used to efficiently propagate and expand cancer stem cells.

PKC μ = PKC μ (Homo sapiens, UniProt Q15139); conditions: higher concentrations; cited from earlier work
Chain of PKC μ (Q15139 whole entry): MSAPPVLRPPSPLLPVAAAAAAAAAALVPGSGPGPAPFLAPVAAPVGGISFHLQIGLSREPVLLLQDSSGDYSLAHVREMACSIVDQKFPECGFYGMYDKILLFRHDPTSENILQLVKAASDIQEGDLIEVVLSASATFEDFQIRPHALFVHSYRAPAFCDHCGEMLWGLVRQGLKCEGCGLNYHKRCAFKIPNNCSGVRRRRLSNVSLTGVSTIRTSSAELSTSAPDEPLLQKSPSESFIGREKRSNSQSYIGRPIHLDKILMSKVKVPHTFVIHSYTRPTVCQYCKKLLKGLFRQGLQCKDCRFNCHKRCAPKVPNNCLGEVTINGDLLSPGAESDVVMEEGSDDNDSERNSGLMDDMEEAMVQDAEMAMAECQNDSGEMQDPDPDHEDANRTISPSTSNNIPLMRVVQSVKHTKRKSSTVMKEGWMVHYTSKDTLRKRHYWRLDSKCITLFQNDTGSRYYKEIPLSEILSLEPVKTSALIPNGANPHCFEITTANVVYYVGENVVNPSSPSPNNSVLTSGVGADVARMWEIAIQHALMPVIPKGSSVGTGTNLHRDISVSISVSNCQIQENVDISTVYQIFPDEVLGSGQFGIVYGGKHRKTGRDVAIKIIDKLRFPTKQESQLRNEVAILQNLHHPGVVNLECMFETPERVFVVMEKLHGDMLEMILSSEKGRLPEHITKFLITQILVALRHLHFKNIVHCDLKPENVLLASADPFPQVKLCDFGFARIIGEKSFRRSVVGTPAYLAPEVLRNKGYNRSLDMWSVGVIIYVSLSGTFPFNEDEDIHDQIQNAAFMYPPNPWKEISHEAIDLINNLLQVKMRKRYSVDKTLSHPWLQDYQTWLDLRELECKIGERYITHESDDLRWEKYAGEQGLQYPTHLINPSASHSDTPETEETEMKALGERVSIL

endothelial cells = conditions: Dutta, et al. (2008); cited from earlier work

Structure (SMILES): COc1ccc2c(c1)c(C1=C(c3c[nH]c4ccccc34)C(=O)NC1=O)cn2CCCN(C)C [Gö6983, 3-[1-[3-(dimethylamino)propyl]5-methoxy-1H-indol-3-yl]-4-(1H-indol-3-yl)-1H-pyrrole-2,5-dione]
- cell survival when propagated at clonal density in N2B27 medium (E14 cells; N2B27 medium plus Gö6983, clonal density): poor
- induction of inhibitor-of-differentiation genes (E14 cells; N2B27 without serum, LIF, BMP4, FIG. 1C): not associated with the induction of inhibitor-of-differentiation genes
- undifferentiated state in N2B27 medium (E14 cells; without serum, LIF and BMP4): could be maintained in an undifferentiated state
- multidifferentiation potential upon withdrawal of Gö6983 (E14 ES cells; ES cells maintained five passages with Gö6983, then withdrawal, FIG. 1E): readily formed EBs or differentiated on collagen IV with induction of lineage-specific gene expression
- ES cell differentiation in the presence of collagen IV or retinoic acid (E14 ES cells; absence of LIF): inhibited ES cell differentiation
- lineage-specific gene expression on collagen IV (E14 ES cells; quantitative RT-PCR, FIG. 1D): repression of lineage-specific gene expression
- differentiation during continuous culture on collagen IV plates (E14 ES cells; without LIF, up to 8 consecutive passages): without any noticeable differentiation
- PKC ζ phosphorylation in ES cells (PKC ζ): almost completely inhibited
- β-catenin stabilization (β-catenin): did not stabilize
- TOPFLASH reporter activity [1]: did not induce
- GSK-3β-mediated phosphorylation of c-Myc at T58 residue (c-Myc): did not inhibit
- phosphorylation of Rsk1 (p90Rsk1 (Rsk1)): not inhibited
- collagen-IV-induced Ezh2−/− cell differentiation (Ezh2−/− ES cells): completely inhibited
- marker expression in Ezh2−/− cells on collagen-IV (Ezh2−/− ES cells): maintained expression of pluripotency markers without the induction of developmental regulator genes
- mamosphere formation (DCIS.com cells): efficiently generated mamospheres
- concentration that inhibits isoform PKC μ (PKC μ): > 20 µM
- angiogenic signal-induced VEGFR1 expression in endothelial cells (endothelial cells): inhibits angiogenic signal-induced VEGFR1 expression
